Laboratory results from ChEMBL document CHEMBL2010736 (ACS Med Chem Lett, 2011).
Calls of active or inactive are those of the source. No cut-off for these calls is given here.

Legend:
Adenosine receptor A1 [1] = biological target: T1, Adenosine receptor A1 (Rattus norvegicus, UniProt P25099); assay: Displacement of [3H]R-PIA from rat forebrain adenosine receptor-1
T1 sequence (P25099 whole entry): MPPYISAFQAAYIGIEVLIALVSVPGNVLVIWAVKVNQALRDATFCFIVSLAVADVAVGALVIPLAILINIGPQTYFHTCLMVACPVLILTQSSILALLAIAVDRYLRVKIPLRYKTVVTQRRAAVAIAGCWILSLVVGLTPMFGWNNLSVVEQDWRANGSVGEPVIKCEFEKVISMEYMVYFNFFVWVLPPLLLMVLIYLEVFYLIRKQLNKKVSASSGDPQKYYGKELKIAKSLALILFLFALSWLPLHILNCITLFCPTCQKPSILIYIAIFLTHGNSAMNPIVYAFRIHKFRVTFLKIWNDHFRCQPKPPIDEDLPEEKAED

[2] = biological target: T2, Adenosine receptor A1 (Homo sapiens) (UniProt P30542); assay: Agonist activity at human recombinant adenosine receptor-1 expressed in CHO cells assessed as inhibition of forskolin-stimulated cAMP production at 10 uM preincubated for 45 mins prior forskolin-induction measured after 15 mins by immunoassay relative to 10 uM CPA; format: functional, cell-based
T2 sequence (whole entry): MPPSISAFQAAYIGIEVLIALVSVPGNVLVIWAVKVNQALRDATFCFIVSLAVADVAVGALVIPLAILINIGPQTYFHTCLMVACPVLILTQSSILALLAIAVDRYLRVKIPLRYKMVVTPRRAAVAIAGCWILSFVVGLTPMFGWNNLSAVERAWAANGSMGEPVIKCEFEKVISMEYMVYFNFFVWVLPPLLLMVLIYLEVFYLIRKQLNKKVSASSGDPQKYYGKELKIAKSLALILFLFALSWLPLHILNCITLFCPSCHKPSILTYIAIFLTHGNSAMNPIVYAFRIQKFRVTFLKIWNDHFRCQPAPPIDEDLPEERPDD

Adenosine receptor A2a [3] = biological target: T3, Adenosine receptor A2a (Homo sapiens, UniProt P29274); assay: Displacement of [3H]CGS21680 from human recombinant adenosine receptor-2A expressed in HEK293 cell membrane at 10 uM after 60 mins by liquid scintillation counting; format: cell membranes
T3 sequence (P29274 whole entry): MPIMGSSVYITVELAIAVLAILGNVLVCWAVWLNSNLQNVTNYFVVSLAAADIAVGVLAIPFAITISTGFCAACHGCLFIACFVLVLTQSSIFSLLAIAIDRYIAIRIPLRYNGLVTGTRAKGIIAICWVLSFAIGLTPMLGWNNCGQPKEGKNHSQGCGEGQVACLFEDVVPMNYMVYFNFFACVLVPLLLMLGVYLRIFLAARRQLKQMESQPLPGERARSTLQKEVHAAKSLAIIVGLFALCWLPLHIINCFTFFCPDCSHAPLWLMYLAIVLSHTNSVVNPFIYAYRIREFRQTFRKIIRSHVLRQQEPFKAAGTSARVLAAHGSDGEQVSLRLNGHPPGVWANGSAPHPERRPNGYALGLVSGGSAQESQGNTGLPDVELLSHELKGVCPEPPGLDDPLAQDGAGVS

Adenosine receptor A2a [4] = biological target: T3, Adenosine receptor A2a; assay: Displacement of [3H]CGS21680 from human recombinant adenosine receptor-2A expressed in HEK293 cell membrane after 60 mins by liquid scintillation counting; format: cell membranes
Adenosine receptor A1 [5] = biological target: T4, Adenosine receptor A1 (Homo sapiens, UniProt P30542); assay: Displacement of [3H]R-PIA from human recombinant adenosine receptor-1 expressed in CHO cell membrane after 60 mins by liquid scintillation counting; format: cell membranes
T4 sequence (P30542 whole entry): T2 sequence (whole entry)

Adenosine receptor A3 = biological target: T5, Adenosine receptor A3 (Homo sapiens, UniProt P0DMS8); assay: Displacement of [125I]AB-MECA from human recombinant adenosine receptor-3 expressed in CHO cell membrane after 60 mins by gamma-counting; format: cell membranes
T5 sequence (P0DMS8 whole entry): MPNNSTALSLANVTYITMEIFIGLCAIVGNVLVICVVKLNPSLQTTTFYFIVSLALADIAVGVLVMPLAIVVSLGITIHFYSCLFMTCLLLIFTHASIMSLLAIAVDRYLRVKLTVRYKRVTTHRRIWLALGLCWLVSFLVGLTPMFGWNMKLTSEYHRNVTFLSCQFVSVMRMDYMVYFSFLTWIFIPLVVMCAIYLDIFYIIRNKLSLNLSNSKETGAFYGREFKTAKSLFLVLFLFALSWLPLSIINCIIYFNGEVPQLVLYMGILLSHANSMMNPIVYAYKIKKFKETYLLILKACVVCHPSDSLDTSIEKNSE

Homo sapiens [6] = species: Homo sapiens; assay: Selectivity ratio of Ki for human recombinant adenosine receptor-3 to Ki for human recombinant adenosine receptor-1
[7] = biological target: T6, Adenosine receptor A3 (Rattus norvegicus) (UniProt P28647); assay: Partial agonist activity at rat adenosine receptor-3; format: functional
T6 sequence (whole entry): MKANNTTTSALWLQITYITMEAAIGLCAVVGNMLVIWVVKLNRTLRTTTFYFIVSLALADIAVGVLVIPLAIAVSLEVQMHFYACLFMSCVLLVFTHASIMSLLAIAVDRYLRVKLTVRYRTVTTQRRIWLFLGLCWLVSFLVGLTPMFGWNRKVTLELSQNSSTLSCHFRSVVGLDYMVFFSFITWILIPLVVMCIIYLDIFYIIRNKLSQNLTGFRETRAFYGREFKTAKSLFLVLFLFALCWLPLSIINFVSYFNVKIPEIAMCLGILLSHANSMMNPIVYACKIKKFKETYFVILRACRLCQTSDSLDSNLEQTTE

[8] = biological target: T7, Adenosine receptor A1 (Rattus norvegicus) (UniProt P25099); assay: Antagonist activity at adenosine receptor-1 in rat adipocytes; format: functional, cell-based
T7 sequence (whole entry): T1 sequence (P25099 whole entry)

[9] = biological target: T2, Adenosine receptor A1 (Homo sapiens); assay: Displacement of [3H]R-PIA from human recombinant adenosine receptor-1 expressed in CHO cell membrane at 10 uM after 60 mins by liquid scintillation counting; format: cell membranes
Homo sapiens [10] = species: Homo sapiens; assay: Selectivity ratio of Ki for human recombinant adenosine receptor-1 to Ki for human recombinant adenosine receptor-3
Adenosine receptor A1 [11] = biological target: T4, Adenosine receptor A1; assay: Agonist activity at human recombinant adenosine receptor-1 expressed in CHO cells assessed as inhibition of forskolin-stimulated cAMP production preincubated for 45 mins prior forskolin-induction measured after 15 mins by immunoassay; format: functional, cell-based

Structure (SMILES)	Ki (Adenosine receptor A1 [1])	inhibition [2]	inhibition (Adenosine receptor A2a [3])	Ki (Adenosine receptor A3)	further results
O[C@@H]1[C@H](O)[C@@H]2C[C@@H]2[C@H]1n1cnc2c(NCC3CC3)nc(Cl)nc21	0.8 nM	81%	–	–	–
O[C@@H]1[C@H](O)[C@@H]2C[C@@H]2[C@H]1n1cnc2c(NCCCF)nc(Cl)nc21	–	23.2%	29%	–	–
O[C@@H]1[C@H](O)[C@@H]2C[C@@H]2[C@H]1n1cnc2c(N[C@@H]3C[C@H]4CC[C@H]3C4)nc(Cl)nc21	0.7 nM	27.8%	–	236 nM	Ki (Adenosine receptor A2a [4]): 4080 nM; Ki (Adenosine receptor A1 [5]): 200 nM
O[C@@H]1[C@H](O)[C@@H]2C[C@@H]2[C@H]1n1cnc2c(NC3CCCCCCC3)nc(Cl)nc21	–	40.1%	43%	–	Ratio Ki (Homo sapiens [6]): 2
CCCCn1c(=O)c2c(ncn2[C@@H]2O[C@H](C(=O)NC)C[C@H]2O)n(CCCC)c1=O	–	–	–	–	Activity [7]: Active; Activity [8]: Active
CC(C)Nc1nc(Cl)nc2c1ncn2[C@H]1[C@H](O)[C@H](O)[C@@H]2C[C@@H]21	1.9 nM	50.5%	39%	–	–
O[C@@H]1[C@H](O)[C@@H]2C[C@@H]2[C@H]1n1cnc2c(NCc3cccc(OCCF)c3)nc(Cl)nc21	–	–	46%	114 nM	Ki (Adenosine receptor A1 [5]): 3580 nM
O[C@@H]1[C@H](O)[C@@H]2C[C@@H]2[C@H]1n1cnc2c(NCc3ccccc3OCCF)nc(Cl)nc21	–	–	32%	–	inhibition [9]: 46%
O[C@@H]1[C@H](O)[C@@H]2C[C@@H]2[C@H]1n1cnc2c(NC3CC3)nc(Cl)nc21	–	79%	–	–	–
O[C@@H]1[C@H](O)[C@@H]2C[C@@H]2[C@H]1n1cnc2c(NC3CCC3)nc(Cl)nc21	0.7 nM	–	–	–	–
O[C@@H]1[C@H](O)[C@@H]2C[C@@H]2[C@H]1n1cnc2c(NCc3cc(F)ccc3F)nc(Cl)nc21	–	–	38%	16.5 nM	Ki (Adenosine receptor A1 [5]): 1260 nM
COc1cc(F)c(F)cc1CNc1nc(Cl)nc2c1ncn2[C@H]1[C@H](O)[C@H](O)[C@@H]2C[C@@H]21	–	–	–	40.4 nM	Ki (Adenosine receptor A2a [4]): 7510 nM; Ki (Adenosine receptor A1 [5]): 1910 nM
CCOc1ccccc1CNc1nc(Cl)nc2c1ncn2[C@H]1[C@H](O)[C@H](O)[C@@H]2C[C@@H]21	–	–	32%	15.2 nM	inhibition [9]: 34%
Nc1nc(Cl)nc2c1ncn2[C@H]1[C@H](O)[C@H](O)[C@@H]2C[C@@H]21	–	68.1%	–	–	–
O[C@@H]1[C@H](O)[C@@H]2C[C@@H]2[C@H]1n1cnc2c(NC3CCCCC3)nc(Cl)nc21	0.9 nM	38%	–	–	Ratio Ki (Homo sapiens [6]): 2
O[C@@H]1[C@H](O)[C@@H]2C[C@@H]2[C@H]1n1cnc2c(NCc3ccccc3F)nc(Cl)nc21	6 nM	–	31%	–	Ratio Ki (Homo sapiens [10]): 115
CC(Nc1nc(Cl)nc2c1ncn2[C@H]1[C@H](O)[C@H](O)[C@@H]2C[C@@H]21)C1CC1 (mixture of isomers)	–	–	41%	–	–
O[C@@H]1[C@H](O)[C@@H]2C[C@@H]2[C@H]1n1cnc2c(NC(C3CC3)C3CC3)nc(Cl)nc21	0.8 nM	–	–	–	EC50 (Adenosine receptor A1 [11]): 40.7 nM
O[C@@H]1[C@H](O)[C@@H]2C[C@@H]2[C@H]1n1cnc2c(NC3CCCCCC3)nc(Cl)nc21	–	48.1%	–	–	–
CCC(CC)Nc1nc(Cl)nc2c1ncn2[C@H]1[C@H](O)[C@H](O)[C@@H]2C[C@@H]21	–	28.6%	–	–	–
O[C@@H]1[C@H](O)[C@@H]2C[C@@H]2[C@H]1n1cnc2c(N[C@H]3C[C@H]4CC[C@H]3C4)nc(Cl)nc21	0.34 nM	62.1%	–	315 nM	Ki (Adenosine receptor A2a [4]): 2450 nM; Ratio Ki (Homo sapiens [6]): 4; Ki (Adenosine receptor A1 [5]): 82.6 nM
COc1ccc(F)c(F)c1CNc1nc(Cl)nc2c1ncn2[C@H]1[C@H](O)[C@H](O)[C@@H]2C[C@@H]21	–	–	30%	83.2 nM	inhibition [9]: 41%
CCNc1nc(Cl)nc2c1ncn2[C@H]1[C@H](O)[C@H](O)[C@@H]2C[C@@H]21	–	–	11%	–	–
